# Where two headings read alike, the source gives them in different places.
# Key:
# [1] = tested on: wheat powdery mildew (Erysiphe graminis); test: Control of wheat powdery mildew by formulated culture broths; format: in vivo; details: 14 days
# Protocol: B.subtilis NCIB 12376 was grown in a yeast peptone-glucose broth at 30° C. in an orbital shaker for 72 hours. The formulants listed in Table 9 were added to samples of culture broths at the concentrations given in Table 9 and stirred until dispersed or dissolved. The formulated broths were tested for control of wheat powdery mildew (Erysiphe graminis) by spraying to run-off wheat plants (cv. Aquila) at the two leaf stage (Zadocks GS 12) prior to inoculation with an aqueous suspension of E. graminis conidia. For each formulation 20 replicate pots of plants were sprayed. Ten pots from each treatment were then thoroughly drenched with a mist bench for 4 minutes, one hour after spraying. All pots were incubated in a glasshouse for 14 days before assessment of disease levels (Table 9).
# [2] = cited from earlier work
# [3] = cited from earlier work; remark: listed apart in the source
compound,measurement,setting,value
CC(C)(C)C(=O)C(Oc1ccc(Cl)cc1)n1cncn1 (centres unmarked) [Triadimefon],Disease Level (% leaf area infected),"[1]; drenched 4 minutes, one hour after spraying, no treatment 5.6",0.1%
same,Disease Level (% leaf area infected),"[1]; undrenched, no treatment 2.0",0.2%
Bacillomycin L,Partition into butanol,[2]; neutral pH,does not partition into butanol
same,Thermostability,"[3]; pH 3, 14 and 23",thermostable
same,Thermostability,"[3]; pH 10, 14 and 23",thermostable
Chaetomacin,Solubility in acetone,[2]; literature,soluble
Fungistatin,Behaviour on contact with water,[2]; water,forms an inactive gel when contacted with water
Iturin A,Thermostability,"[3]; pH 3, 14 and 23",thermostable
same,Thermostability,"[3]; pH 10, 14 and 23",thermostable
Mycobacillin,Solubility in acetone,[2]; literature,soluble
same,Solubility in water,"[2]; pH values of 7 and below, refs. 20 and 22",insoluble
Mycosubtilin,Solubility in butanol,[2]; literature,insoluble
same,Solubility in ethanol,[2]; literature,insoluble
same,Solubility in methanol,"[2]; methanol, literature",insoluble
Rhizoctonia factor,Solubility in butanol,[2]; literature,insoluble
same,Solubility in ethanol,[2]; literature,insoluble
same,Thermostability,"[3]; pH 2 only, refs. 5 and 9",thermostable only at pH 2

# From patent US5061495A, “Antibiotic derived from B. subtilis” (Agricultural Genetics Company Limited, priority 1988, dated 1991)
